{
  "source": "patent US7902170B2",
  "about": "“Influenza virus binding, sialylated oligosaccharide substance and use thereof” (priority 2000, dated 2011)",
  "note": "Entries after “also recorded” stand apart in the source; their conditions may differ.",
  "data": [
    {"tested_on": "human influenza A virus X-113 reassortant vaccine strain (hemagglutinin and neuraminidase of A/Texas/36/91, H1N1)", "assay_type": "binding", "values": [
      {"substance": "NeuAcα3Galβ4GlcβCer [GM3]", "Binding of human influenza virus HRP conjugate to glycolipid on TLC plate": "did not see binding"},
      {"substance": "NeuAcα6Galβ4GlcNAcβ3Galβ4GlcβCer [S-6-PG]", "Binding of human influenza virus HRP conjugate to glycolipid on TLC plate": "did not show binding; also recorded: no binding at all"},
      {"substance": "NeuAcα3Galβ4GlcNAcβ3Galβ4(Fucα3)GlcNAcβ- [VIM-2]", "Binding of human influenza virus HRP conjugate to glycolipid on TLC plate": "excluded; also recorded: no binding"},
      {"substance": "sulfatide", "Binding of human influenza virus HRP conjugate to glycolipid on TLC plate": "probably unspecific interaction"},
      {"substance": "NeuAcα6Galβ4GlcNAcβ3Galβ4GlcNAcβ3Galβ4GlcβCer [7-sugar NeuAc-6-neolacto ganglioside]", "Binding of human influenza virus HRP conjugate to glycolipid on TLC plate": "did not show binding; also recorded: no binding at all"},
      {"substance": "NeuAcα3Galβ4(Fucα3)GlcNAcβ-", "Binding of human influenza virus HRP conjugate to glycolipid on TLC plate": "excluded; also recorded: no binding"}
    ]}
  ]
}
